# Patent publication US11879021B2, “Cyclic peptides and uses thereof” (UNIVERSITÉ DE MONTRÉAL, priority 2016, dated 2024)
# Assays:
# [1] = tested on: R-FSL-1 (TLR2 agonist)-induced TNF-α and CCL-2 release in RAW macrophages; assay: R-FSL-1-induced TNF-α and CCL-2 release in RAW macrophages; format: cell-based, murine; details: 10^−7 M
# [2] = tested on: R-FSL-1 (TLR2 agonist)-induced TNF-α and CCL-2 release in RAW macrophages; assay: as above; format: cell-based, murine; details: 10^−7 M; remark: listed apart in the source
# Experimental: The murine RAW1 macrophage cell line was obtained from American Type Cell Collection (ATCC #TIB-71). RAW cells were seeded at 150,000 cells per well in a 48-well plate (Costar® #3548) and weaned overnight in medium (DMEM supplemented 1% penicillin/streptomycin) at 37° C. with 5% CO2. The next day, the medium was changed to DMEM-1% penicillin/streptomycin supplemented with 0.2% BSA. The cells were first pretreated with 300 μL of azapeptides DBG178 (MPE-133, reference standard), 25 (MPE-210), 26 (MPE-266), 28 (MPE-268), 32 (MPE-267), 33 (MPE-298), 38 (MPE-308), 35 (MPE-300), 39 (MPE-310) and azaLys6-GHRP-6 (as negative control) at 10^-7M for 30 min. Then, […] of the TLR2 agonist, R-FSL-1 (300 ng/ml final concentration, R-FSL-1, Invivogen® #L7022) was added for 4 h period of incubation at 37° C. with 5% CO2. At the end of the incubation period, media were collected and stored at −80° C. for TNF-α and CCL-2 assays using ELISA kits (EbioScience® #88-7391 and #88-7324). Results were analyzed by analysis of variance (ANOVA) with post hoc comparisons using Dunnett's test with a statistical software package (Graph Pad Prism® version 7.0). P<0.05 was considered statistically significant.
# apoE−/− mice = assay: Murine atherosclerosis model (apoE−/− mice on atherogenic diet), aortic lesions; format: in vivo; details: 300 nmol/kg daily s.c. for 8 weeks
# Experimental: Experiments were performed in male apoE−/− mice fed an atherogenic diet (D12108, cholate-free AIN-76A semi-purified diet, Research Diets Inc., New Brunswick, NJ) from 4 weeks of age. MPE-298 (300 nmol/kg), MPE-267 (300 nmol/kg) or vehicle (0.9% NaCl), were administered by daily by subcutaneous (s.c.) injections for 8 weeks, from 12 weeks of age, as shown schematically in FIG. 8A.
# [3] = tested on: R-FSL-1-induced IL-1β and TNF-α secretion in bone marrow-derived macrophages; assay: IL-1β and TNF-α secretion in bone marrow-derived macrophages (BMDM) stimulated with R-FSL-1; format: cell-based, mice; details: murine BMDM primed with LPS, 10^−6 to 10^−11 M
# Excerpt: Bone marrow-derived macrophages isolation and purification. Bone marrow-derived macrophages (BMDM) were isolated from the tibia and femur of 4-month-old C57Bl/6 mice. Mice were euthanized in a CO2 chamber individually. Tibia and femur were dissected from dead mice after removing the skin and the muscles and stored in cold DMEM before use. The bones are placed in Petri dishes containing sterile PBS and immersed in ice. In a laminar flow of culture, bones are immersed in 70% ethanol for one minute, and then rinsed in sterile PBS. Bones were cut in 2 pieces using sterile forceps and scissors and put in pierced 0.6 mL tubes which were put in 2 mL centrifuge tubes containing 200 μL of DMEM. After 1 min of centrifugation at 6500 RPM, pellets of bone marrow cells were gently resuspended and pooled in a 50 mL tube. Cells were counted and monocytes were purified from the bone marrow cells using the EasySep™ Mouse Monocyte Isolation Kit (StemCell Technologies, #19861) according to the manufacturer instructions. […] Statistical significance of data was analyzed by analysis of variance (ANOVA) with post-hoc comparisons using Dunnett's test with statistical software package (Graph Pad Prism version 7.0). […]
# [4] = tested on: R-FSL-1 (TLR2 agonist)-induced NO production in RAW macrophage cell line; assay: Nitric oxide (NO) production induced by TLR2 agonist R-FSL-1 in RAW macrophage cell line; format: cell-based, murine; details: RAW macrophages
# Experimental: The murine RAW1 macrophage cell line was obtained from American Type Cell Collection (ATCC #TIB-71), seeded at 1.5×10^5 cells/well in Dulbecco's Modified Eagle's medium (DMEM) containing 100 U/mL of penicillin (Pen) and 100 μg/mL of streptomycin (Strep) on a 48-well plate (Costar® #3548), and incubated at 37° C. with 5% CO2. After 2 h, the cell culture medium of adhered cells was removed and replaced by DMEM-Pen/Strep medium containing 0.2% of bovine serum albumin (BSA), and supplemented with the cyclic peptides at a concentration of 10^−6 or 10^−7 M. MPE-001 (DBG178, His-D-Trp-Ala-AzaTyr-D-Phe-Lys-NH2) and [azaLys^6]-GHRP-6 (His-D-Trp-Ala-Trp-D-Phe-azaLys-NH2, negative control) at 10^−6 M were used as positive and negative controls, respectively. After 1 h pre-incubation, the cells were stimulated overnight using the TLR2 ligand fibroblast-stimulating lipopeptide (R-FSL-1) (Invivogen® #L7022) at a concentration of 300 ng/mL. Supernatants were then collected for nitrite production analysis by fluorescence using 2,3-diaminonaphthalene (DAN). Briefly, 25 μL of sample was incubated with 0.5 μg of DAN in a 100 μL final volume of phosphate buffer (50 mM, pH 7.5) at room temperature in the dark. After 15 min, the reaction was stopped with 20 μL of NaOH (2.8N) and the plate was read using a fluorescence plate reader (TECAN® Safire, λexc 365 nm and λem 430 nm).
structure (smiles),measurement,setting,value
C=CCN1CC#CCN(NC(=O)[C@H](C)N)C(=O)N[C@H](Cc2c[nH]c3ccccc23)C(=O)N[C@@H](C)C(=O)N[C@@H](Cc2c[nH]c3ccccc23)C(=O)N[C@H](Cc2ccccc2)C(=O)N[C@H](C(N)=O)CCCC1 [MPE-298],inhibitory effect on R-FSL-1-induced CCL-2 release compared with reference standard DBG178 (MPE-001),[1],significantly higher
same,effect on R-FSL-1-induced CCL-2 release,[2],significant inhibitory effect
same,effect on R-FSL-1-induced TNF-α release,[2],significant inhibitory effect
same,reduction of aortic lesions relative to 0.9% NaCl (vehicle),apoE−/− mice,42%
same,secretion of IL-1β induced by R-FSL-1,[3],able to inhibit
same,secretion of TNF-α induced by R-FSL-1,[3],able to inhibit
same,suppression of NO production compared with positive control MPE-001 at the same concentration,"[4]; 10^−7 M, FIG. 4F",more important
same,suppression of R-FSL-1-mediated NO production at 10^−7 M,"[4]; 10^−7 M, further analyses, FIG. 4F",significant suppression
same,suppression of R-FSL-1-mediated NO production,"[4]; at the concentration tested (10^−6 or 10^−7 M), FIGS. 4A to 4F",significant suppression
